Data as given in ChEMBL document CHEMBL1764998, “Structures, synthesis, and human Nod1 stimulation of immunostimulatory bacterial peptidoglycan fragments in the environment” (J Nat Prod, 2011).
The source made the active and inactive calls. The rule behind the calls is not given here.

Assays:
Assay type in all cases: cell-based
Conditions in all cases: HEK-293T
[1] = target: T1, Nucleotide-binding oligomerization domain-containing protein 1 (Homo sapiens) (UniProt Q9Y239); test: Induction of human NOD1 activity expressed in HEK293T cells assessed as NFKB activation at 1 to 100 ng/ml by luciferase reporter assay
T1 sequence (whole entry): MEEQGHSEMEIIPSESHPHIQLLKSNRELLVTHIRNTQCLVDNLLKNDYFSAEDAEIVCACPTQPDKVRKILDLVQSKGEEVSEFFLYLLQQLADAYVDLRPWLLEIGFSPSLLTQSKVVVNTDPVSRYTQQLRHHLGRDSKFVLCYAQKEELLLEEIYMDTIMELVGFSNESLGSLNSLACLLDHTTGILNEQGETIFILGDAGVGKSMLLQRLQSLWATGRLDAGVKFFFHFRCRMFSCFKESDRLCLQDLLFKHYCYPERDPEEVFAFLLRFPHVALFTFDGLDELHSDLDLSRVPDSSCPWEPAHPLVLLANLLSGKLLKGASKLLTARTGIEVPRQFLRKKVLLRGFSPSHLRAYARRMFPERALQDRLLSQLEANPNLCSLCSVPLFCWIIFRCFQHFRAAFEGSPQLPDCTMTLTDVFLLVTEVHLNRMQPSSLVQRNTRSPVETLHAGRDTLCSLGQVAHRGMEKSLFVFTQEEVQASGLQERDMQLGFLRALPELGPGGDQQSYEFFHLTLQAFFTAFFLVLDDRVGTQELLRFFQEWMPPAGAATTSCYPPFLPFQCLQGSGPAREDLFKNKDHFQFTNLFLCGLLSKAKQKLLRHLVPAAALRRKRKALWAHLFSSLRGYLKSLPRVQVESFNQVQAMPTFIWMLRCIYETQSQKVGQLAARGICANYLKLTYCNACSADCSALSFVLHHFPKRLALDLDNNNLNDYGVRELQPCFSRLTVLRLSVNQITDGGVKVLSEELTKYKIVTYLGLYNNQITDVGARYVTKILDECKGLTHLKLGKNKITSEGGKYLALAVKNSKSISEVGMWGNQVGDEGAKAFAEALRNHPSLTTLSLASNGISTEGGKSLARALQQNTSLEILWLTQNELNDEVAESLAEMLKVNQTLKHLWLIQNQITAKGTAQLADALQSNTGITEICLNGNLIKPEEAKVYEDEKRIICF

[2] = target: T1, Nucleotide-binding oligomerization domain-containing protein 1 (Homo sapiens); test: Induction of human NOD1 activity expressed in HEK293T cells assessed as NFKB activation at 0.1 to 1000 ng/ml by luciferase reporter assay
[3] = target: T1, Nucleotide-binding oligomerization domain-containing protein 1 (Homo sapiens); test: Induction of human NOD1 activity expressed in HEK293T cells assessed as NFKB activation at 5 mM

SMILES | Activity [1] | Activity [2] | Activity [3]
C[C@H](N)C(=O)N[C@H](CCC(=O)N[C@@H](CCC[C@@H](N)C(=O)O)C(=O)O)C(=O)O | Active |  | 
CC(=O)N[C@@H]1[C@@H](OC(C)C(=O)N[C@@H](C)C(=O)N[C@H](CCC(=O)N[C@@H](CCC[C@@H](N)C(=O)O)C(=O)O)C(=O)O)[C@H](O[C@@H]2O[C@H](CO)[C@@H](O)[C@H](O)[C@H]2NC(C)=O)[C@@H](CO)O[C@H]1O (stereo partly specified) |  | Active | 
N[C@H](CCC[C@H](NC(=O)CC[C@@H](N)C(=O)O)C(=O)O)C(=O)O | Active |  | 
CC(=O)N[C@@H]1[C@@H](OC(C)C(=O)N[C@@H](C)C(=O)N[C@H](CCC(=O)N[C@@H](CCC[C@@H](N)C(=O)O)C(=O)O)C(=O)O)[C@H](O)[C@@H](CO)O[C@H]1O (stereo partly specified) |  | Active | Active
CC(=O)N[C@H]1[C@H](O[C@H]2[C@H](OC(C)C(=O)N[C@@H](C)C(=O)N[C@H](CCC(=O)N[C@@H](CCC[C@@H](N)C(=O)O)C(=O)O)C(=O)O)[C@@H](NC(C)=O)[C@@H]3OC[C@H]2O3)O[C@H](CO)[C@@H](O)[C@@H]1O (stereo partly specified) | Active |  | 
